Assay [1] has as its target T1, Adrenergic β2 (H292 cells) (Homo sapiens, UniProt P07550).
T1 construct: endogenous in cells; host or cells: H292 cells
In words: Assay for Adrenergic β2 Mediated cAMP Production (concentration response, AlphaScreen cAMP detection). Type of assay: cell-based. Conditions: for EC50: cAMP production, 60 minutes at room temperature, 300 μM rolipram, read-out: β2 pEC50 (converted); for β2 Intrinsic activity: fraction relative to the maximum activity determined for formoterol. On the procedure: Assay for Adrenergic β2 Mediated Camp Production
H292 cells are grown in 225 cm2 flasks incubator at 37° C., 5% CO2 in RPMI medium containing 10% (v/v) FBS (foetal bovine serum) and 2 mM L-glutamine.
Adherent H292 cells are removed from tissue culture flasks by treatment with Accutase™ cell detachment solution for 15 minutes. Flasks are incubated for 15 minutes in a humidified incubator at 37° C., 5% CO2. Detached cells are re-suspended in RPMI media (containing 10% (v/v) FBS and 2 mM L-glutamine) at 0.1×10^6 cells per mL. 10000 cells in 100 μL are added to each well of a tissue-culture-treated 96-well plate and the cells incubated overnight in a humidified incubator at 37° C., 5% CO2. The culture media is removed and cells are washed twice with 100 μL assay buffer and replaced with 50 μL assay buffer (HBSS solution containing 10 mM HEPES pH7.4 and 5 mM glucose). Cells are rested at room temperature for 20 minutes after which time 25 μL of rolipram (1.2 mM made up in assay buffer containing 2.4% (v/v) dimethylsulphoxide) is added. Cells are incubated with rolipram for 10 minutes after which time test compounds are added and the cells are incubated for 60 minutes at room temperature. The final rolipram concentration in the assay is 300 μM and final vehicle concentration is 1% (v/v) dimethylsulphoxide. The reaction is stopped by removing supernatants, washing once with 100 μL assay buffer and replacing with 50 μL lysis buffer. The cell monolayer is frozen at −80° C. for 30 minutes (or overnight).
AlphaScreen™ cAMP Detection
The concentration of cAMP (cyclic adenosine monophosphate) in the cell lysate is determined using AlphaScreen™ methodology. The frozen cell plate is thawed for 20 minutes on a plate shaker then 10 μL of the cell lysate is transferred to a 96-well white plate. 40 μL of mixed AlphaScreen™ detection beads pre-incubated with biotinylated cAMP, is added to each well and the plate incubated at room temperature for 3 hours in the dark. The AlphaScreen™ signal is measured using an EnVision spectrophotometer (Perkin-Elmer Inc.) with the recommended manufacturer's settings. cAMP concentrations are determined by reference to a calibration curve determined in the same experiment using standard cAMP concentrations. Concentration response curves for agonists are constructed and data is fitted to a four parameter logistic equation to determine both the pEC50 and Intrinsic Activity. Intrinsic Activity is expressed as a fraction relative to the maximum activity determined for formoterol in each experiment.

Assay [2] concerns the target T2, human muscarinic acetylcholine M3 receptor (M3-ACh) (Homo sapiens, UniProt P20309).
T2 construct: expressed in transfected cells; host or cells: CHO-K1 (Chinese Hamster Ovary) cell membranes
As to the kind of experiment: Muscarinic 3 Receptor Binding Assay ([3H]NMS competition, SPA). Conditions: [3H]NMS 0.1 nM, CHO-K1 cell membranes, 16 hours at room temperature; read-out: M3 pIC50 (converted). The method, then:
Muscarinic 3 Receptor Binding Assay
The affinity (pIC50) of compounds binding to the M3 receptor is determined by competition binding of [^3H]N-methyl scopolamine (NMS) to CHO-K1 (Chinese Hamster Ovary) cell membranes expressing the human muscarinic acetylcholine M3 receptor (M3-ACh) in a scintillation proximity assay (SPA) format.
SPA beads are precoated with membranes and then incubated at 2 mg of beads per well with serial dilutions of compounds of the invention, [^3H]NMS at 0.1 nM, quarter Kd (experimentally determined dissociation constant) and assay buffer (20 mM HEPES pH 7.4 containing 5 mM MgCl2). The assay is conducted in a final volume of 200 μL, in the presence of 1% (v/v) dimethyl sulphoxide (DMSO). Total binding of [^3H]NMS is determined in the absence of competing compound and non-specific binding of [^3H]NMS is determined in the presence of 1 μM atropine. The plates are incubated for 16 hours at room temperature and then read on Wallac Microbeta™ using a normalised ^3H protocol. The pIC50, defined as the negative logarithm of the molar concentration of compound required for 50% reduction in specific [^3H]-NMS binding, is determined.

Structures are written as SMILES.

T1 sequence (P07550 whole entry): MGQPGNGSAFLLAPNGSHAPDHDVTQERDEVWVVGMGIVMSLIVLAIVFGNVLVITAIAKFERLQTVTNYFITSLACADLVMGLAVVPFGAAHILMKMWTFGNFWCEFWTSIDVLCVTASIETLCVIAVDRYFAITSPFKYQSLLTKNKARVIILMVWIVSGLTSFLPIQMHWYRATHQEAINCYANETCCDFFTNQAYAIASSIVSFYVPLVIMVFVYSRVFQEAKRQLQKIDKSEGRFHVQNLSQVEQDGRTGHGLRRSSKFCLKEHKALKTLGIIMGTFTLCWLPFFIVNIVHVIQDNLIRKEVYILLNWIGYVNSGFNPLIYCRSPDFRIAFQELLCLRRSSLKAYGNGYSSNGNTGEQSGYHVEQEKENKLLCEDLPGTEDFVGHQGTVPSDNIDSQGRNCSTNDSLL
T2 sequence (P20309 whole entry): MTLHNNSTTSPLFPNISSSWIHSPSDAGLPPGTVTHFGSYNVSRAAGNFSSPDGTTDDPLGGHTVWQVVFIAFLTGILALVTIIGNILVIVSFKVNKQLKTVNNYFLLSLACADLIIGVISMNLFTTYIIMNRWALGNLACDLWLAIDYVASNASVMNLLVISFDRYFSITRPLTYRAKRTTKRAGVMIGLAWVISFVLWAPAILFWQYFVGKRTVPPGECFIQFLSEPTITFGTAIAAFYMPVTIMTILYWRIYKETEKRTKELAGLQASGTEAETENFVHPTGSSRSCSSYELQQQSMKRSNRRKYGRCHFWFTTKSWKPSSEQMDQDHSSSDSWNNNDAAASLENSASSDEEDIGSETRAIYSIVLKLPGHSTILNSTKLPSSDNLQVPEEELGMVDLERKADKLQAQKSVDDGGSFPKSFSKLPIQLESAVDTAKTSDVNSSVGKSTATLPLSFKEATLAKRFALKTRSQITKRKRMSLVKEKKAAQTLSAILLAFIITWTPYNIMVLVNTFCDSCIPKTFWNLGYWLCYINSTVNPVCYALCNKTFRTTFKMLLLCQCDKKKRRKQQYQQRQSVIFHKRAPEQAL

For the compound `Cc1ccc(C(=O)N2CCOC3(CCN(Cc4cc(CCNC[C@H](O)c5ccc(O)c6[nH]c(=O)sc56)cs4)CC3)C2)s1` [Example 27, (R)-4-Hydroxy-7-(1-hydroxy-2-(2-(5-((4-(5-methylthiophene-2-carbonyl)-1-oxa-4,9-diazaspiro[5.5]undecan-9-yl)methyl)thiophen-3-yl)ethylamino)ethyl)benzo[d]thiazol-2(3H)-one ditrifluoroacetate], in assay [1], the EC50 was 1.26 nM and the “β2 Intrinsic activity” value is 1. Besides, in assay [2], the IC50 was 2.51 nM.
For `Cc1nc(C(=O)N2CCOC3(CCN(Cc4cc(F)cc(CCNC[C@H](O)c5ccc(O)c6[nH]c(=O)ccc56)c4)CC3)C2)cs1` [Example 28, (R)-5-(2-(3-Fluoro-5-((4-(2-methylthiazole-4-carbonyl)-1-oxa-4,9-diazaspiro[5.5]undecan-9-yl)methyl)phenethylamino)-1-hydroxyethyl)-8-hydroxyquinolin-2(1H)-one ditrifluoroacetate], in that order: 10 nM, 1 and 2.51 nM.
As for `Cc1ccc(C(=O)N2CCOC3(CCN(Cc4cc(CCNC[C@H](O)c5ccc(O)c6[nH]c(=O)sc56)ccc4F)CC3)C2)s1` [Example 29, (R)-7-(2-(4-Fluoro-3-((4-(5-methylthiophene-2-carbonyl)-1-oxa-4,9-diazaspiro[5.5]undecan-9-yl)methyl)phenethylamino)-1-hydroxyethyl)-4-hydroxybenzo[d]thiazol-2(3H)-one ditrifluoroacetate], in assay [1], the EC50 is 1.58 nM and the “β2 Intrinsic activity” value was 1. Besides, in assay [2], the IC50 is 3.98 nM.
The like results for `COC(=O)c1ccc(C(=O)N2CCOC3(CCN(Cc4cccc(CCNC[C@H](O)c5ccc(O)c6[nH]c(=O)sc56)c4)CC3)C2)s1` [Example 30, (R)-methyl 5-(9-(3-(2-(2-hydroxy-2-(4-hydroxy-2-oxo-2,3-dihydrobenzo[d]thiazol-7-yl)ethylamino)ethyl)benzyl)-1-oxa-4,9-diazaspiro[5.5]undecane-4-carbonyl)thiophene-2-carboxylate ditrifluoroacetate] were, in that order, 2.51 nM, 0.9 and 15.8 nM.
As for `COC(=O)c1ccc(C(=O)N2CCOC3(CCN(Cc4cccc(CCNC[C@H](O)c5ccc(O)c6[nH]c(=O)ccc56)c4)CC3)C2)s1` [Example 31, (R)-Methyl 5-(9-(3-(2-(2-hydroxy-2-(8-hydroxy-2-oxo-1,2-dihydroquinolin-5-yl)ethylamino)ethyl)benzyl)-1-oxa-4,9-diazaspiro[5.5]undecane-4-carbonyl)thiophene-2-carboxylate ditrifluoroacetate], in assay [1], the EC50 is 5.01 nM and the “β2 Intrinsic activity” value is 0.9. The IC50 in assay [2] is 63.1 nM.
For `Cc1ccc(C(=O)N2CCOC3(CCN(Cc4cc(CCNC[C@H](O)c5ccc(O)c6[nH]c(=O)sc56)cc(F)c4F)CC3)C2)s1` [Example 32, (R)-7-(2-(3,4-Difluoro-5-((4-(5-methylthiophene-2-carbonyl)-1-oxa-4,9-diazaspiro[5.5]undecan-9-yl)methyl)phenethylamino)-1-hydroxyethyl)-4-hydroxybenzo[d]thiazol-2(3H)-one ditrifluoroacetate], in that order: 3.16 nM, 1.1 and 39.8 nM.
For `Cc1ccc(C(=O)N2CCOC3(CN(Cc4cccc(CCNC[C@H](O)c5ccc(O)c6[nH]c(=O)sc56)c4)C3)C2)s1` [Example 33, (R)-4-Hydroxy-7-(1-hydroxy-2-(3-((8-(5-methylthiophene-2-carbonyl)-5-oxa-2,8-diazaspiro[3.5]nonan-2-yl)methyl)phenethylamino)ethyl)benzo[d]thiazol-2(3H)-one ditrifluoroacetate], in that order: 6.31 nM, 1 and 12.6 nM.
Regarding `Cc1ccc(C(=O)N2CCOC3(CCN(Cc4ccc(F)c(CCNC[C@H](O)c5ccc(O)c6[nH]c(=O)sc56)c4F)CC3)C2)s1` [Example 34, (R)-7-(2-(2,6-Difluoro-3-((4-(5-methylthiophene-2-carbonyl)-1-oxa-4,9-diazaspiro[5.5]undecan-9-yl)methyl)phenethylamino)-1-hydroxyethyl)-4-hydroxybenzo[d]thiazol-2(3H)-one ditrifluoroacetate], in assay [1], the EC50 is 3.16 nM and the “β2 Intrinsic activity” value was 1. Moreover, the IC50 in assay [2] was 20 nM.
In the case of `Cc1ccc(C(=O)N2CCOC3(CCN(Cc4ccc(F)c(CCNC[C@H](O)c5ccc(O)c6[nH]c(=O)ccc56)c4F)CC3)C2)s1` [Example 35, (R)-5-(2-(2,6-Difluoro-3-((4-(5-methylthiophene-2-carbonyl)-1-oxa-4,9-diazaspiro[5.5]undecan-9-yl)methyl)phenethylamino)-1-hydroxyethyl)-8-hydroxyquinolin-2(1H)-one ditrifluoroacetate], in assay [1], the EC50 is 12.6 nM and the “β2 Intrinsic activity” value worked out at 1. In addition, in assay [2], the IC50 was 25.1 nM.
`CC(C)c1nc(C(=O)N2CCOC3(CCN(Cc4cc(CCNC[C@H](O)c5ccc(O)c6[nH]c(=O)sc56)cs4)CC3)C2)cs1` [Example 36, (R)-4-Hydroxy-7-(1-hydroxy-2-(2-(5-((4-(2-isopropylthiazole-4-carbonyl)-1-oxa-4,9-diazaspiro[5.5]undecan-9-yl)methyl)thiophen-3-yl)ethylamino)ethyl)benzo[d]thiazol-2(3H)-one ditrifluoroacetate]: in assay [1], the EC50 was 6.31 nM and the “β2 Intrinsic activity” value was determined as 1. Moreover, the IC50 in assay [2] is 0.501 nM.
`Cc1ccc(C(=O)N2CC(F)(F)OC3(CCN(Cc4cccc(CCNC[C@H](O)c5ccc(O)c6[nH]c(=O)ccc56)c4)CC3)C2)s1` [Example 37, (R)-5-(2-(3-((2,2-Difluoro-4-(5-methylthiophene-2-carbonyl)-1-oxa-4,9-diazaspiro[5.5]undecan-9-yl)methyl)phenethylamino)-1-hydroxyethyl)-8-hydroxyquinolin-2(1H)-one ditrifluoroacetate]: in assay [1], the EC50 is 3.16 nM and the “β2 Intrinsic activity” value was 0.9. Also, the IC50 in assay [2] is 3.16 nM.
As for `Cc1ccc(C(=O)N2CCOC3(CCN(Cc4cccc(OCCNC[C@H](O)c5ccc(O)c6[nH]c(=O)sc56)c4)CC3)C2)s1` [Example 38, (R)-4-Hydroxy-7-(1-hydroxy-2-(2-(3-((4-(5-methylthiophene-2-carbonyl)-1-oxa-4,9-diazaspiro[5.5]undecan-9-yl)methyl)phenoxy)ethylamino)ethyl)benzo[d]thiazol-2(3H)-one ditrifluoroacetate], in assay [1], the EC50 was 20 nM and the “β2 Intrinsic activity” value is given as 0.8. For the same compound, in assay [2], the IC50 was 2.51 nM.
Turning to `CC(C)c1nc(C(=O)N2CCOC3(CCN(Cc4cccc(C(F)CNC[C@H](O)c5ccc(O)c6[nH]c(=O)sc56)c4)CC3)C2)cs1` (stereo partly drawn) [Example 39, 7-((1R)-2-(2-Fluoro-2-(3-((4-(2-isopropylthiazole-4-carbonyl)-1-oxa-4,9-diazaspiro[5.5]undecan-9-yl)methyl)phenyl)ethylamino)-1-hydroxyethyl)-4-hydroxybenzo[d]thiazol-2(3H)-one ditrifluoroacetate], in assay [1], the EC50 is 100 nM and the “β2 Intrinsic activity” value worked out at 0.9. Also, in assay [2], the IC50 was 0.316 nM.

These data come from patent US8148373B2, “Compounds” (AstraZeneca AB, priority 2008, dated 2012).
